Legend:
[1] = tested on: mice (zymosan-induced peritonitis); assay: Zymosan-induced peritonitis in mice; type: in vivo, mice (C57BL/6NCR); conditions: for PMN accumulation / exudate formation: NBD peptides 200 mg/ml i.p. with zymosan
Method: In a second model, peritonitis was induced in mice by intraperitoneal (i.p.) injection of zymosan either alone or in combination with dexamethasone or the NBD peptides. For zymosan-induced peritonitis, measurement of peritoneal exudates and inflammatory cell collections from replicate groups of age and sex matched mice (C57BL/6NCR) were performed as previously described (Getting et al., (1998) Immunology 95, 625-630). Groups of animals were injected concomitantly with one ml zymosan (1 mg/ml) and either dexamethasone (100 mg/ml) or the NBD peptides (200 mg/ml). The concentration of NOX (nitrate plus nitrite) present in the inflammatory exudates was measured using a colorimetric assay kit (Alexis Corporation) according to the manufacturers protocol.

E-selectin = E-selectin expression in primary HUVEC (FACS); type: cell-based, human; conditions: for TNFα-induced expression of E-selectin: peptide 100 μM 2 h, TNFα 10 ng/ml 6 h
Method: (A) Primary HUVEC were pre-incubated for two hours with wild-typo (middle) or mutant (bottom) NBD peptides (100 μM) then stimulated with TNFα (10 ng/ml) for a further six hours. Control cells received no peptide. Cells were stained with either anti-E-selectin (H4/18) or a non-binding control antibody (K16/16) and expression was measured FACS (FACSort, Becton Dickinson). The profiles show E-selectin staining in the absence (shaded) and presence (solid line) of TNFα and control antibody staining under the sane conditions (dashed line, no TNFα; dotted line, TNFα). (B) % control release of NO2— in various samples. (C) PMA-induced ear edema in mice topically treated with either vehicle (VEH), dexamethasone (DEX) or NBD peptides was induced and measured as described in Example 8. Data are presented as mean differences in ear thickness ±SD (*=p<0.05 compared with both untreated control and vehicle). (D) The effects of the NBD peptide compared with the effect of dexamethasone (DEX) on Zymosan (ZYM)-induced peritonitis in mice were determined as described again in Example 8. Control mice were injected with phosphate-buffered saline (PBS).
Many proteins involved in the initiation and maintenance of inflammatory responses require NF-κB activation for induced expression of their genes (Ghosh et al., (1998) Annu. Rev. Immunol. 16, 225-260; May & Ghosh, (1998) Immunol. Today 19, 80-88). One such protein, E-selectin, is a leukocyte adhesion molecule expressed on the luminal surface of vascular endothelial cells after activation by pro-inflammatory stimuli such as IL-1 or TNFα (Pober et al., (1986) J. Immunol. […], 1680-1687; Bevilacqua et al., (1987) Proc. Natl. Acad. Sci. USA 84, 9238-9242; Collins et al., (1995) FASEB J. 9, 899-909). Expression of E-selectin and other NF-κB-dependent adhesion molecules is crucial for the arrest and recruitment of leukocytes into sites of acute and chronic inflammation. […]

NF-κB = assay: pBIIX-luciferase NF-κB reporter assay in HeLa cells; type: cell-based, human; conditions: for TNFα-induced NF-κB activation (luciferase reporter): peptide 100 and 200 μM 2 h, TNFα 10 ng/ml 4 h; for basal NF-κB activity (luciferase reporter): no TNFα
Method: (A) Sequences of wild-type (SEQ ID NO:18) and mutant (SEQ ID NO:19 forms of IKKβ NBD peptide. (B) GST-pull-down analysis was performed using either GST-NEMO-in vitro translated IKKβ (upper panel) or GST-IKKβ-(644-756)-in vitro translated NEMO (lower panel). The assay was performed in the absence (no peptide) or presence of increasing concentrations ([…], 500 or 1000 μM) of either mutant (MUT) (SEQ ID NO:19) or wild-type (WT) NBD (SEQ ID NO:18). (C) HeLa cells were incubated with either peptide (200 μM) for the times indicated. Following lysis, the IKK complex was immunoprecipitated using anti-NEMO and the resulting immunoblot probed with anti-IKKβ. (D) Gel image showing anti-NEMO immunoprecipitation. (E) Gel image showing anti-FLAG immunoblot. (F) HeLa cells were incubated for three hours with increasing concentrations: 50, 100 or 200 μM) of each peptide followed by treatment for fifteen minutes with TNFα (10 ng/ml) as indicated (+). Following lysis, nuclear extracts were made and 10 μg of protein from each sample was used for EMSA using a specific [^32P]-labeled κB-site probe. (G) Gel image showing anti-Phospho-C-Jun immunoblot and anti-β-Actin immunoblot. (H) HeLa cells were transfected for forty-eight hours with pBIIX-luciferase then incubated for two hours in the absence (control) or presence of mutant or wild-type NBD peptide (100 and 200 μM of each). Subsequently the cells were either treated with TNFα (10 ng/ml) as indicated (toe panel) or left untreated (bottom panel) for a further four hours after which NF-κB activation was measured by luciferase assay.
For transfection studies, HeLa and COS cells were seeded into either twenty-four well (1×10^5 cells/well) or six well (5×10^5 cells/well) plates and grown for twenty-four hours before transfection of DNA with FUGENE6(Roche) according to the manufacturer's protocol. Cells in twenty-four well and six well trays received a total of 1 μg or 2 μg of DNA respectively. After forty-eight hours cells were lysed with TNT (200 mM NaCl, 20 mM Tris-pH 8.0, 1% Triton-100) and the lysate were used for either immunoprecipitation or luciferase assay (Primage Luciferase Assay System).
The effects of the NBD peptides on signal-induced activation of NF-κB were investigated next. Analysis using electrophoretic mobility shift assay. […] Further, after transfecting HeLa cells with the pBIIX-luciferase reporter, cells were preincubated with wild-type or mutant peptides, treated with TNFα and NF-κB activation measured by the luciferase reporter assay. As shown in FIG. 5H (top panel), the wild-type NBD peptide inhibited TNFα-induced NF-κB activation whereas the mutant had no effect. […]

[2] = NBD peptide 200 mg/ml i.p. with zymosan

Substance	effect on NOX in peritoneal exudates [1, 2]	PMN accumulation [1]	exudate formation [1]	TNFα-induced expression of E-selectin (E-selectin)	TNFα-induced NF-κB activation (luciferase reporter) (NF-κB)	reduction of NOX in peritoneal exudates [1, 2] [%]	E-selectin expression in the absence of TNFα (E-selectin; peptide 100 μM)	basal NF-κB activity (luciferase reporter) (NF-κB; listed as cell-permeable NBD peptide)	basal NF-κB activity (luciferase reporter) (NF-κB; listed as wild-type peptide)
[DRQIKIWFQNRRMKWKK]TALDASALQTE (DRQIKIWFQNRRMKWKKTALDASALQTE; Description of Artificial Sequence: Synthetic Mutant NBD peptide) [identical to wild-type NBD peptide except W739 and W741 mutated to alanine, reference compound]	no effect	no effect	no effect	not	no effect				
[DRQIKIWFQNRRMKWKK]TALDWSWLQTE (DRQIKIWFQNRRMKWKKTALDWSWLQTE; Description of Unknown: Unknown wildtype NBD peptide) [wild-type NBD peptide]		significantly reduced	significantly reduced	significantly reduced	inhibited	66±4	induced low level expression	modest increase	enhanced
